Assay results as given in paper PMC6270420, “Antibacterial Activity of Salicylanilide 4-(Trifluoromethyl)benzoates” (Molecules, 2013).
Converted amounts (≈) assume the structure as drawn. Read-outs that look alike come from different tables or passages of the source.

Assays:
Mtb. Praha 1 = assay: microbe, parasite or virus in culture; assay type: cell-based; conditions: Mycobacterium tuberculosis, read-out: MIC Mtb. Praha 1
Mtb. 234/2005 = assay: microbe, parasite or virus in culture; assay type: cell-based; conditions: Mycobacterium tuberculosis, read-out: MIC Mtb. 234/2005
Mtb. 7357/1988 = assay: microbe, parasite or virus in culture; assay type: cell-based; conditions: Mycobacterium tuberculosis, read-out: MIC Mtb. 7357/1988
[1] = target: T1, mycobacterial isocitrate lyase (ICL1, Rv0467) (Mycobacterium tuberculosis, UniProt P9WKK7); assay: Isocitrate lyase inhibition assay (ICL1); assay type: biochemical, Mycobacterium tuberculosis H37Rv; conditions: 10 μmol/L; read-out: % ICL inhibition at 10 μmol/L (± standard deviation)
T1 construct: His tag (from pET-28b(+)); made in house; host or cells: E. coli BL21(DE3), pET-28b(+) plasmid
T1 sequence (P9WKK7 1-428): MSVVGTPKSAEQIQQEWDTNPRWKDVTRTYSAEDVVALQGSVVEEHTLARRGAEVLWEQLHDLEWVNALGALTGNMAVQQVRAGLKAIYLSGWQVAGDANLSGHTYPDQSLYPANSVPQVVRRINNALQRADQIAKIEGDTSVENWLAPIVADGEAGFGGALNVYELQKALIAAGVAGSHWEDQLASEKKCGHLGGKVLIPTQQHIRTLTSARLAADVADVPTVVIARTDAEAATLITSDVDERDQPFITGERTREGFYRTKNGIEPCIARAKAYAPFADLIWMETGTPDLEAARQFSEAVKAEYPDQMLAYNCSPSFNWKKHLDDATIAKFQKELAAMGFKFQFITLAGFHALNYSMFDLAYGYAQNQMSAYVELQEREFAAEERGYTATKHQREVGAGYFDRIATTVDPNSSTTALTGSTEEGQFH

Mtb. Praha 131 (XDR-TB) = assay: microbe, parasite or virus in culture; assay type: cell-based; conditions: Mycobacterium tuberculosis, read-out: MIC Mtb. Praha 131 (XDR-TB)
HepG2 cells = assay: Cytotoxicity evaluation (CellTiter 96 MTS); assay type: cell-based, human; conditions: Homo sapiens, HepG2, 24 h, read-out: IC50 HepG2
Method: Seven esters and their parent salicylanilides with the most robust antimicrobial activity were tested for cytotoxicity in the human hepatocellular liver carcinoma cell line HepG2 (passages 21–24; ECACC, Salisbury, UK) using a standard colorimetric method measuring a tetrazolium salt reduction (CellTiter(R) 96 AQueous One Solution Assay, Promega G3580, Madison, WI, USA).
The cells were routinely cultured in Minimum Essentials Eagle Medium (Sigma-Aldrich, Darmstadt, Germany) supplemented with 10% foetal bovine serum (PAA; Biotech, Prague, Czech Republic), 1% of L-glutamine solution (Sigma-Aldrich), and non-essential amino acids solution (Sigma-Aldrich) in a humidified atmosphere containing 5% CO2 at 37 °C. For subculturing, the cells were harvested after trypsin/EDTA (Sigma-Aldrich) treatment at 37 °C. The cells treated with the tested substances were used as experimental groups. Untreated HepG2 cells were used as control groups.
The cells were seeded in density 1 × 10^4 cells per well in a 96-well plate with microscopic control. Next day, the cells were treated with each of the tested substances. […] The most of the tested compounds were prepared in incubation concentrations of 0.01–20 µM in triplicates. 4-(Trifluoromethyl)benzoic acid was applied in the concentrations of 10–4,000 µM in triplicates. The following types of controls were included: determination of 100% viability and 0% viability (the cells treated by 10% DMSO), no cell control and vehiculum controls. These checking samples were prepared in triplicates.
The treated cells were incubated together with controls at 37 °C for 24 h in 5% CO2 atmosphere. After this time reagent from the kit CellTiter 96 AQueous One Solution Cell Proliferation Assay was added. The CellTiter 96 assay is based on the reduction of tetrazolium salt MTS [3-(4,5-dimethylthiazol-2-yl)-5-(3-carboxymethoxyphenyl)-2-(4-sulfophenyl)-2H-tetrazolium] to water-soluble formazan dye by metabolically active cells. The reduction of the reagent is attributed to availability of NADH or NADPH. The decline in levels of these metabolically important compounds in the cell causes that the production of formazan is reduced. The tested plate was incubated for 2 h at 37 °C and 5% CO2 and after this time, the absorbance was recorded at 490 nm using a 96-well plate reader (TECAN, Infinite M200, Grödig, Austria).
The results were expressed as inhibitory concentration which is necessary to inhibit cell viability to 50% from the maximal (control) viability (IC50). A standard toxicological parameter IC50 was calculated in each of the tested substances using GraphPad Prism software (version 5.02; GraphPad Software Inc., San Diego, CA, USA).

[2] = tested on: M. kansasii 6509/96 (clinically isolated strain); assay: Antimycobacterial MIC micromethod; assay type: cell-based; conditions: Mycobacterium kansasii, read-out: MIC M. kansasii 6509/96
Mtb. 53/2009 = assay: microbe, parasite or virus in culture; assay type: cell-based; conditions: Mycobacterium tuberculosis, read-out: MIC Mtb. 53/2009
[3] = tested on: Mycobacterium avium 330/88; assay: Antimycobacterial MIC micromethod; assay type: cell-based
[4] = tested on: Mycobacterium kansasii 235/80; assay: Antimycobacterial MIC micromethod; assay type: cell-based; conditions: read-out: MIC M. kansasii 235/80
Mtb. 9449/2006 = assay: microbe, parasite or virus in culture; assay type: cell-based; conditions: Mycobacterium tuberculosis, read-out: MIC Mtb. 9449/2006
[5] = tested on: Mycobacterium tuberculosis 331/88 (H37Rv); assay: Antimycobacterial MIC micromethod, Šula's medium; assay type: cell-based; conditions: read-out: MIC Mtb. 331/88
[6] = tested on: Gram-positive cocci including MRSA; assay: Antibacterial microdilution, summary for Gram-positive cocci; assay type: cell-based; conditions: Staphylococcus aureus, read-out: MICs against Gram-positive cocci
Method: (§1) The in vitro antibacterial activity was assayed against eight Gram-positive and Gram-negative strains: Staphylococcus aureus CCM 4516/08, methicillin-resistant Staphylococcus aureus H 5996/08 (MRSA), Staphylococcus epidermidis H 6966/08, Enterococcus sp. J 14365/08; Escherichia coli CCM 4517, Klebsiella pneumoniae D 11750/08, ESBL-positive Klebsiella pneumoniae J 14368/08, and Pseudomonas aeruginosa CCM 1961.
(§2) The microdilution broth method modified according to standard M07-A07 in Mueller-Hinton broth (HiMedia Laboratories, Mumbai, India) adjusted to pH 7.4 (±0.2) was used. The tested compounds were dissolved in DMSO to the final concentrations ranging from […]. Benzylpenicillin (penicillin G) was used as a comparative drug. Bacterial inoculum in sterile water was prepared to match 0.5 McFarland scale ([…]). The minimum inhibitory concentrations were assayed as 90% (IC90) or higher reduction of growth when compared to the control. The determination of results was performed visually and spectrophotometrically (at 540 nm). The values of MICs were determined after 24 and 48 h of incubation in the darkness at 35 °C (±0.1) in a humid atmosphere.

[7] = tested on: Enterococcus sp. J 14365/08; assay: Antibacterial microdilution broth method; assay type: cell-based; conditions: read-out: MIC/IC90 Enterococcus sp. J 14365/08
Method: as §1, §2

[8] = tested on: Escherichia coli CCM 4517; assay: Antibacterial microdilution broth method; assay type: cell-based; conditions: read-out: MIC/IC90 E. coli CCM 4517
Method: as §1, §2

[9] = tested on: Staphylococcus epidermidis H 6966/08; assay: Antibacterial microdilution broth method; assay type: cell-based; conditions: read-out: MIC/IC90 S. epidermidis H 6966/08
Method: as §1, §2

[10] = tested on: methicillin-resistant Staphylococcus aureus H 5996/08 (MRSA); assay: Antibacterial microdilution broth method; assay type: cell-based; conditions: read-out: MIC/IC90 MRSA H 5996/08
Method: as §1, §2

[11] = tested on: Staphylococcus aureus CCM 4516/08; assay: Antibacterial microdilution broth method; assay type: cell-based; conditions: read-out: MIC/IC90 S. aureus CCM 4516/08
Method: as §1, §2

| SMILES | inhibition at 10 µM [1] [%] | MIC ([2]; 168 h, 7 d) [µM] | MIC ([2]; 336 h, 14 d) [µM] | MIC ([2]; 504 h, 21 d) [µM] | MIC ([3]; 330/88, 336 h, 14 d) [µM] | MIC ([3]; 330/88, 504 h, 21 d) [µM] | MIC ([4]; 235/80, 168 h, 7 d) [µM] | MIC ([4]; 235/80, 336 h, 14 d) [µM] | MIC ([4]; 235/80, 504 h, 21 d) [µM] | MIC ([5]; 336 h, 14 d) [µM] | MIC ([5]; 504 h, 21 d) [µM] | MIC [6] [µM] | MIC ([7]; SP.J14365/08, 24 h) [µM] | MIC ([7]; SP.J14365/08, 48 h) [µM] | MIC ([8]; CCM4517, 24 h) [µM] | MIC ([8]; CCM4517, 48 h) [µM] | MIC ([9]; H6966/08, 24 h) [µM] | MIC ([9]; H6966/08, 48 h) [µM] | MIC ([10]; 24 h) [µM] | MIC ([10]; 48 h) [µM] | other results |
| --- | --- | --- | --- | --- | --- | --- | --- | --- | --- | --- | --- | --- | --- | --- | --- | --- | --- | --- | --- | --- | --- |
| O=C(Oc1ccc(Cl)cc1C(=O)Nc1cccc(Br)c1)c1ccc(C(F)(F)F)cc1 [1g] | ≥ 20 | 1 (≈ 0.499 µg/mL) | 4 (≈ 1.99 µg/mL) | 4 (≈ 1.99 µg/mL) | 2 (≈ 0.997 µg/mL) | 8 (≈ 3.99 µg/mL) | 2 (≈ 0.997 µg/mL) | 4 (≈ 1.99 µg/mL) | 4 (≈ 1.99 µg/mL) | 1 (≈ 0.499 µg/mL) | 2 (≈ 0.997 µg/mL) |  |  |  |  |  |  |  |  |  | MIC (Mtb. Praha 1; 336 h): 1 µM (≈ 0.499 µg/mL); MIC (Mtb. Praha 1; 504 h): 2 µM (≈ 0.997 µg/mL); MIC (Mtb. 234/2005; 336 h): 1 µM (≈ 0.499 µg/mL); MIC (Mtb. 234/2005; 504 h): 2 µM (≈ 0.997 µg/mL); MIC (Mtb. 7357/1988; 336 h): 2 µM (≈ 0.997 µg/mL); MIC (Mtb. 7357/1988; 504 h): 2 µM (≈ 0.997 µg/mL); MIC (Mtb. Praha 131 (XDR-TB); 336 h): 1 µM (≈ 0.499 µg/mL); MIC (Mtb. Praha 131 (XDR-TB); 504 h): 2 µM (≈ 0.997 µg/mL); IC50 (HepG2 cells): 2630 nM; MIC (Mtb. 53/2009; 336 h): 2 µM (≈ 0.997 µg/mL); MIC (Mtb. 53/2009; 504 h): 2 µM (≈ 0.997 µg/mL); MIC (Mtb. 9449/2006; 336 h): 1 µM (≈ 0.499 µg/mL); MIC (Mtb. 9449/2006; 504 h): 2 µM (≈ 0.997 µg/mL) |
| O=C(Oc1cc(Cl)ccc1C(=O)Nc1cccc(Br)c1)c1ccc(C(F)(F)F)cc1 [1h] | ≥ 20 | 2 (≈ 0.997 µg/mL) | 8 (≈ 3.99 µg/mL) | 8 (≈ 3.99 µg/mL) | 8 (≈ 3.99 µg/mL) | 16 (≈ 7.98 µg/mL) | 4 (≈ 1.99 µg/mL) | 8 (≈ 3.99 µg/mL) | 8 (≈ 3.99 µg/mL) | 4 (≈ 1.99 µg/mL) | 8 (≈ 3.99 µg/mL) | < 1 | 31.2 (≈ 15.6 µg/mL) | 250 (≈ 125 µg/mL) | > 500 | > 500 | 0.49 (≈ 0.244 µg/mL) | 0.98 (≈ 0.489 µg/mL) | 0.49 (≈ 0.244 µg/mL) | 0.98 (≈ 0.489 µg/mL) | MIC ([11]; CCM4516, 24 h): 0.98 µM (≈ 0.489 µg/mL); MIC ([11]; CCM4516, 48 h): 0.98 µM (≈ 0.489 µg/mL) |
| O=C(Oc1ccc(Cl)cc1C(=O)Nc1cccc(F)c1)c1ccc(C(F)(F)F)cc1 [1k] | ≥ 20 | 8 (≈ 3.5 µg/mL) | 16 (≈ 7 µg/mL) | 16 (≈ 7 µg/mL) | 16 (≈ 7 µg/mL) | 32 (≈ 14 µg/mL) | 8 (≈ 3.5 µg/mL) | 16 (≈ 7 µg/mL) | 16 (≈ 7 µg/mL) | 8 (≈ 3.5 µg/mL) | 8 (≈ 3.5 µg/mL) | < 1 | 31.2 (≈ 13.7 µg/mL) | > 250 | > 250 | > 250 | 3.9 (≈ 1.71 µg/mL) | 3.9 (≈ 1.71 µg/mL) | 0.98 (≈ 0.429 µg/mL) | 1.95 (≈ 0.854 µg/mL) | MIC ([11]; CCM4516, 24 h): 3.9 µM (≈ 1.71 µg/mL); MIC ([11]; CCM4516, 48 h): 3.9 µM (≈ 1.71 µg/mL) |
